According to patent publication US12338220B2, “Antiviral pyrazolopiridinone compounds” (Novartis AG, priority 2019, dated 2025):
pEC50, pIC50: −log10 of the molar value. Where two headings read alike, the source gives them in different places.

Legend:
CMV-polymerase = CMV-polymerase (Human cytomegalovirus (strain AD169) (HHV-5) (Human herpesvirus 5), UniProt P08546); test: biochemical
CMV = test: microbe, parasite or virus in culture; assay type: cell-based; settings: Human betaherpesvirus 5, 72 h, read-out: CMV-Luc Cellular EC50, NN-NHDF cells, MOI 1, 72 hrs
[1] = CMV-polymerase Biochemical IC50
[2] = read-out: CMV-polymerase Biochemical IC50

Row | Compound | pIC50 (CMV-polymerase; [1]) | pEC50 (CMV) | pIC50 (CMV-polymerase; [2])
1 | Cn1nc(C(=O)NCc2ccc(C#N)cc2)c2c1C(=O)N(CC1(S(=O)(=O)C(C)(C)CN)CC1)CC2 [Example 70, 6-((1-((1-Amino-2-methylpropan-2-yl)sulfonyl)cyclopropyl)methyl)-N-(4-cyanobenzyl)-1-methyl-7-oxo-4,5,6,7-tetrahydro-1H-pyrazolo[3,4-c]pyridine-3-carboxamide] | 8.52 | 7.21 | 
2 | COC(=O)NCC(C)(C)S(=O)(=O)C1(CN2CCc3c(C(=O)NCc4ccc(C#N)cc4)nn(C)c3C2=O)CC1 [Example 73, Methyl (2-((1-((3-((4-cyanobenzyl)carbamoyl)-1-methyl-7-oxo-1,4,5,7-tetrahydro-6H-pyrazolo[3,4-c]pyridin-6-yl)methyl)cyclopropyl)sulfonyl)-2-methylpropyl)carbamate] |  | 7.28 | 8.70
3 | Cn1nc(C(=O)NCc2ccc(C#N)cc2)c2c1C(=O)N(CC1(S(=O)(=O)C(C)(C)CNC(=O)CN)CC1)CC2 [Example 74, 6-((1-((1-(2-Aminoacetamido)-2-methylpropan-2-yl)sulfonyl)cyclopropyl)methyl)-N-(4-cyanobenzyl)-1-methyl-7-oxo-4,5,6,7-tetrahydro-1H-pyrazolo[3,4-c]pyridine-3-carboxamide] |  | 6.83 | 8.52
4 | C[C@@H](N)C(=O)NCC(C)(C)S(=O)(=O)C1(CN2CCc3c(C(=O)NCc4ccc(C#N)cc4)nn(C)c3C2=O)CC1 [Example 75, (R)-6-((1-((1-(2-Aminopropanamido)-2-methylpropan-2-yl)sulfonyl)cyclopropyl)methyl)-N-(4-cyanobenzyl)-1-methyl-7-oxo-4,5,6,7-tetrahydro-1H-pyrazolo[3,4-c]pyridine-3-carboxamide] |  | 7.33 | 8.15
5 | C[C@H](N)C(=O)NCC(C)(C)S(=O)(=O)C1(CN2CCc3c(C(=O)NCc4ccc(C#N)cc4)nn(C)c3C2=O)CC1 [Example 76, (S)-6-((1-((1-(2-Aminopropanamido)-2-methylpropan-2-yl)sulfonyl)cyclopropyl)methyl)-N-(4-cyanobenzyl)-1-methyl-7-oxo-4,5,6,7-tetrahydro-1H-pyrazolo[3,4-c]pyridine-3-carboxamide] |  | 7.08 | 8.00
6 | Cn1nc(C(=O)NCc2ccc(C#N)cc2)c2c1C(=O)N(CC1(S(=O)(=O)C(C)(C)CNC(=O)C(C)(C)N)CC1)CC2 [Example 77, 6-((1-((1-(2-Amino-2-methylpropanamido)-2-methylpropan-2-yl)sulfonyl)cyclopropyl)methyl)-N-(4-cyanobenzyl)-1-methyl-7-oxo-4,5,6,7-tetrahydro-1H-pyrazolo[3,4-c]pyridine-3-carboxamide] |  | 6.94 | 7.92
7 | CN(C)CC(=O)NCC(C)(C)S(=O)(=O)C1(CN2CCc3c(C(=O)NCc4ccc(C#N)cc4)nn(C)c3C2=O)CC1 [Example 78, N-(4-Cyanobenzyl)-6-((1-((1-(2-(dimethylamino)acetamido)-2-methylpropan-2-yl)sulfonyl)cyclopropyl)methyl)-1-methyl-7-oxo-4,5,6,7-tetrahydro-1H-pyrazolo[3,4-c]pyridine-3-carboxamide] |  | 6.95 | 7.59
8 | Cn1nc(C(=O)NCc2ccc(C#N)cc2)c2c1C(=O)N(CC1(S(=O)(=O)C(C)(C)COC(F)(F)CO)CC1)CC2 [Example 84, N-(4-cyanobenzyl)-6-((1-((1-(1,1-difluoro-2-hydroxyethoxy)-2-methylpropan-2-yl)sulfonyl)cyclopropyl)methyl)-1-methyl-7-oxo-4,5,6,7-tetrahydro-1H-pyrazolo[3,4-c]pyridine-3-carboxamide] | 8.40 | 7.29 | 
9 | Cn1nc(C(=O)NCc2ccc(C#N)cc2)c2c1C(=O)N(CC1(S(=O)(=O)C(C)(C)COC(F)(F)CN)CC1)CC2 [Example 85, 6-((1-((1-(2-Amino-1,1-difluoroethoxy)-2-methylpropan-2-yl)sulfonyl)cyclopropyl)methyl)-N-(4-cyanobenzyl)-1-methyl-7-oxo-4,5,6,7-tetrahydro-1H-pyrazolo[3,4-c]pyridine-3-carboxamide] | 8.52 | 7.30 | 
10 | Cn1nc(C(=O)NCc2ccc(C#N)cc2)c2c1C(=O)N(CC1(S(=O)(=O)C(C)(C)COCC(C)(C)O)CC1)CC2 [Example 86, N-(4-Cyanobenzyl)-6-((1-((1-(2-hydroxy-2-methylpropoxy)-2-methylpropan-2-yl)sulfonyl)cyclopropyl)methyl)-1-methyl-7-oxo-4,5,6,7-tetrahydro-1H-pyrazolo[3,4-c]pyridine-3-carboxamide] | 7.74 | 6.84 | 
11 | Cn1nc(C(=O)NCc2ccc(Cl)cc2)c2c1C(=O)N(CC1(S(=O)(=O)C(C)(C)COCCO)CC1)CC2 [Example 88, N-(4-Chlorobenzyl)-6-((1-((1-(2-hydroxyethoxy)-2-methylpropan-2-yl)sulfonyl)cyclopropyl)methyl)-1-methyl-7-oxo-4,5,6,7-tetrahydro-1H-pyrazolo[3,4-c]pyridine-3-carboxamide] | 8.70 | 7.44 | 
12 | Cn1nc(C(=O)NCc2ccc(C#N)cc2)c2c1C(=O)N(CC1(S(=O)(=O)C3(COCCN)CC3)CC1)CC2 [Example 96, 6-((1-((1-((2-aminoethoxy)methyl)cyclopropyl)sulfonyl)cyclopropyl)methyl)-N-(4-cyanobenzyl)-1-methyl-7-oxo-4,5,6,7-tetrahydro-1H-pyrazolo[3,4-c]pyridine-3-carboxamide] |  | 7.59 | 9.00
13 | CNCCOCC(C)(C)S(=O)(=O)C1(CN2CCc3c(C(=O)NCc4ccc(C#N)cc4)nn(C)c3C2=O)CC1 [Example 101, N-(4-Cyanobenzyl)-1-methyl-6-((1-((2-methyl-1-(2-(methylamino)ethoxy)propan-2-yl)sulfonyl)cyclopropyl)methyl)-7-oxo-4,5,6,7-tetrahydro-1H-pyrazolo[3,4-c]pyridine-3-carboxamide] | 9.00 | 8.05 | 
14 | Cn1nc(C(=O)NCc2ccc(C#N)cc2)c2c1C(=O)N(CC1(S(=O)(=O)C(C)(C)COC3CNC3)CC1)CC2 [Example 102, 6-((1-((1-(Azetidin-3-yloxy)-2-methylpropan-2-yl)sulfonyl)cyclopropyl)methyl)-N-(4-cyanobenzyl)-1-methyl-7-oxo-4,5,6,7-tetrahydro-1H-pyrazolo[3,4-c]pyridine-3-carboxamide] | 8.30 | 7.59 | 
15 | Cn1nc(C(=O)NCc2ccc(C#N)cc2)c2c1C(=O)N(CC1(S(=O)(=O)C(C)(C)COCC(C)(C)N)CC1)CC2 [Example 103, 6-((1-((1-(2-Amino-2-methylpropoxy)-2-methylpropan-2-yl)sulfonyl)cyclopropyl)methyl)-N-(4-cyanobenzyl)-1-methyl-7-oxo-4,5,6,7-tetrahydro-1H-pyrazolo[3,4-c]pyridine-3-carboxamide] | 8.05 | 7.39 | 
16 | CN(C)CCOCC(C)(C)S(=O)(=O)C1(CN2CCc3c(C(=O)NCc4ccc(C#N)cc4)nn(C)c3C2=O)CC1 [Example 104, N-(4-Cyanobenzyl)-6-((1-((1-(2-(dimethylamino)ethoxy)-2-methylpropan-2-yl)sulfonyl)cyclopropyl)methyl)-1-methyl-7-oxo-4,5,6,7-tetrahydro-1H-pyrazolo[3,4-c]pyridine-3-carboxamide] |  | 7.68 | 8.52
